Test results reported in PubChem BioAssay (NCI).
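Interpolation was linear, between the two tested concentrations surrounding the appropriate level; five concentrations were tested over 48 hours in 96-well plates. TGI: concentration producing complete growth inhibition.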

Experiments:
Assay in all cases: NCI tumour cell line growth inhibition, 48 h
NCI-H460 lung = tested on: NCI-H460 lung
SK-MEL-2 melanoma = tested on: SK-MEL-2 melanoma
SNB-78 CNS = tested on: SNB-78 CNS
OVCAR-3 ovarian = tested on: OVCAR-3 ovarian
SK-OV-3 ovarian = tested on: SK-OV-3 ovarian
XF 498 CNS = tested on: XF 498 CNS
CCRF-CEM leukemia = tested on: CCRF-CEM leukemia
UACC-62 melanoma = tested on: UACC-62 melanoma
HCT-116 colon = tested on: HCT-116 colon
SN12K1 renal = tested on: SN12K1 renal
HCT-15 colon = tested on: HCT-15 colon
A498 renal = tested on: A498 renal
KM12 colon = tested on: KM12 colon
RPMI-8226 leukemia = tested on: RPMI-8226 leukemia
MOLT-4 leukemia = tested on: MOLT-4 leukemia
U251 CNS = tested on: U251 CNS
MCF7 breast = tested on: MCF7 breast
SN12C renal = tested on: SN12C renal
NCI-H23 lung = tested on: NCI-H23 lung
OVCAR-5 ovarian = tested on: OVCAR-5 ovarian
DMS 114 small cell lung = tested on: DMS 114 small cell lung
SNB-75 CNS = tested on: SNB-75 CNS
HOP-18 NSCLC = tested on: HOP-18 NSCLC
HL-60(TB) leukemia = tested on: HL-60(TB) leukemia
HCC-2998 colon = tested on: HCC-2998 colon
NCI/ADR-RES ovarian = tested on: NCI/ADR-RES ovarian
MALME-3M melanoma = tested on: MALME-3M melanoma
NCI-H226 lung = tested on: NCI-H226 lung
UO-31 renal = tested on: UO-31 renal
OVCAR-4 ovarian = tested on: OVCAR-4 ovarian
DMS 273 small cell lung = tested on: DMS 273 small cell lung
SF-295 CNS = tested on: SF-295 CNS
P388 leukemia = tested on: P388 leukemia
OVCAR-8 ovarian = tested on: OVCAR-8 ovarian
HOP-62 NSCLC = tested on: HOP-62 NSCLC
HT29 colon = tested on: HT29 colon
IGROV1 ovarian = tested on: IGROV1 ovarian
LOX IMVI melanoma = tested on: LOX IMVI melanoma
COLO 205 colon = tested on: COLO 205 colon
KM20L2 colon = tested on: KM20L2 colon
DLD-1 colon = tested on: DLD-1 colon
A549 NSCLC = tested on: A549 NSCLC
RXF 393 renal = tested on: RXF 393 renal
SNB-19 CNS = tested on: SNB-19 CNS
M19-MEL melanoma = tested on: M19-MEL melanoma
K-562 leukemia = tested on: K-562 leukemia
SW-620 colon = tested on: SW-620 colon
SK-MEL-5 melanoma = tested on: SK-MEL-5 melanoma
SK-MEL-28 melanoma = tested on: SK-MEL-28 melanoma
SF-268 CNS = tested on: SF-268 CNS
UACC-257 melanoma = tested on: UACC-257 melanoma
P388/ADR leukemia = tested on: P388/ADR leukemia
HOP-92 NSCLC = tested on: HOP-92 NSCLC
EKVX NSCLC = tested on: EKVX NSCLC
NCI-H522 lung = tested on: NCI-H522 lung
SF-539 CNS = tested on: SF-539 CNS
CAKI-1 renal = tested on: CAKI-1 renal

CCOCCOc1ccc(OCCOCC)cc1
TGI (NCI-H460 lung): > 73.7 µM | TGI (SK-MEL-2 melanoma): > 63.7 µM | TGI (SNB-78 CNS): > 57.7 µM | TGI (OVCAR-3 ovarian): > 49.3 µM | TGI (SK-OV-3 ovarian): > 100 µM | TGI (XF 498 CNS): 30.1 µM | TGI (CCRF-CEM leukemia): 9.84 µM | TGI (UACC-62 melanoma): 38.7 µM | TGI (HCT-116 colon): 33.4 µM | TGI (SN12K1 renal): 31.6 µM | TGI (HCT-15 colon): 40.3 µM | TGI (A498 renal): > 61.8 µM | TGI (KM12 colon): > 100 µM | TGI (RPMI-8226 leukemia): 26.4 µM | TGI (MOLT-4 leukemia): > 43 µM | TGI (U251 CNS): > 100 µM | TGI (MCF7 breast): 32.9 µM | TGI (SN12C renal): 31.8 µM | TGI (NCI-H23 lung): > 100 µM | TGI (OVCAR-5 ovarian): > 100 µM | TGI (DMS 114 small cell lung): 17.1 µM | TGI (SNB-75 CNS): 52.8 µM | TGI (HOP-18 NSCLC): 61.3 µM | TGI (HL-60(TB) leukemia): 12.7 µM | TGI (HCC-2998 colon): > 100 µM | TGI (NCI/ADR-RES ovarian): 39.3 µM | TGI (MALME-3M melanoma): 45.8 µM | TGI (NCI-H226 lung): > 73100 nM | TGI (UO-31 renal): 26.9 µM | TGI (OVCAR-4 ovarian): 20.7 µM | TGI (DMS 273 small cell lung): > 58.4 µM | TGI (SF-295 CNS): > 57.2 µM | TGI (P388 leukemia): > 100 µM | TGI (OVCAR-8 ovarian): 35.4 µM | TGI (HOP-62 NSCLC): > 100 µM | TGI (HT29 colon): 38.9 µM | TGI (IGROV1 ovarian): 38 µM | TGI (LOX IMVI melanoma): 33.8 µM | TGI (COLO 205 colon): 33.3 µM | TGI (KM20L2 colon): 47.2 µM | TGI (DLD-1 colon): 28.2 µM | TGI (A549 NSCLC): > 100 µM | TGI (RXF 393 renal): 33 µM | TGI (SNB-19 CNS): > 100 µM | TGI (M19-MEL melanoma): > 62.5 µM | TGI (K-562 leukemia): 24.2 µM | TGI (SW-620 colon): 40.1 µM | TGI (SK-MEL-5 melanoma): > 54 µM | TGI (SK-MEL-28 melanoma): 40.8 µM | TGI (SF-268 CNS): 36 µM | TGI (UACC-257 melanoma): 32.3 µM

COc1cccc2c1C(=O)c1c(O)c3c(c(O)c1C2=O)CC(O)(C(=O)CO)CC3OC1CC(N)C(I)C(C)O1 (configuration not stated)
TGI (NCI-H460 lung): 12.6 µM | TGI (SK-MEL-2 melanoma): 30.4 µM | TGI (SNB-78 CNS): > 100 µM | TGI (OVCAR-3 ovarian): > 57.6 µM | TGI (SK-OV-3 ovarian): 18.6 µM | TGI (XF 498 CNS): 22.2 µM | TGI (CCRF-CEM leukemia): > 100 µM | TGI (UACC-62 melanoma): 7.43 µM | TGI (HCT-116 colon): 6.12 µM | TGI (SN12K1 renal): > 37.2 µM | TGI (HCT-15 colon): 14.6 µM | TGI (A498 renal): 21.4 µM | TGI (KM12 colon): > 100 µM | TGI (RPMI-8226 leukemia): > 100 µM | TGI (MOLT-4 leukemia): > 100 µM | TGI (U251 CNS): 19.3 µM | TGI (MCF7 breast): 29.4 µM | TGI (SN12C renal): > 63.8 µM | TGI (NCI-H23 lung): 15.1 µM | TGI (OVCAR-5 ovarian): > 54.6 µM | TGI (DMS 114 small cell lung): > 30.2 µM | TGI (SNB-75 CNS): > 100 µM | TGI (P388/ADR leukemia): > 20.1 µM | TGI (HOP-18 NSCLC): 65.7 µM | TGI (HL-60(TB) leukemia): > 100 µM | TGI (HCC-2998 colon): 27.1 µM | TGI (NCI/ADR-RES ovarian): > 31.6 µM | TGI (MALME-3M melanoma): 25.1 µM | TGI (NCI-H226 lung): 2950 nM | TGI (UO-31 renal): 17.5 µM | TGI (OVCAR-4 ovarian): 26.9 µM | TGI (HOP-92 NSCLC): > 63 µM | TGI (DMS 273 small cell lung): 7.03 µM | TGI (SF-295 CNS): 23.3 µM | TGI (OVCAR-8 ovarian): 34.1 µM | TGI (HOP-62 NSCLC): 13.9 µM | TGI (HT29 colon): > 100 µM | TGI (IGROV1 ovarian): 18.4 µM | TGI (LOX IMVI melanoma): 9.15 µM | TGI (COLO 205 colon): > 100 µM | TGI (KM20L2 colon): > 54.2 µM | TGI (EKVX NSCLC): > 55.5 µM | TGI (DLD-1 colon): 13.7 µM | TGI (A549 NSCLC): > 55.1 µM | TGI (NCI-H522 lung): > 100 µM | TGI (RXF 393 renal): 25.2 µM | TGI (SNB-19 CNS): > 100 µM | TGI (SF-539 CNS): 11.8 µM | TGI (M19-MEL melanoma): 30.7 µM | TGI (K-562 leukemia): > 100 µM | TGI (SW-620 colon): > 100 µM | TGI (SK-MEL-5 melanoma): 14.5 µM | TGI (CAKI-1 renal): > 100 µM | TGI (SK-MEL-28 melanoma): > 100 µM | TGI (SF-268 CNS): > 100 µM | TGI (UACC-257 melanoma): > 52.3 µM
